In patent publication US11071731B2, “Allosteric modulators of the mu opioid receptor” (Chiromics, LLC, priority 2017, dated 2021):
pEC50: −log10 of the molar value.

How the values were obtained:
mu opioid receptor (MOR) [1] = target: T1, mu opioid receptor (MOR) (Homo sapiens, UniProt P35372); experiment: Hit Hunter cAMP signaling assay (adenylyl cyclase inhibition), PAM mode with EC20 endomorphin-1; type: cell-based
mu opioid receptor (MOR) [2] = target: T1, mu opioid receptor (MOR); experiment: PathHunter β-arrestin recruitment assay, PAM mode with EC20 endomorphin-1; type: cell-based; settings: for β-arr Max. Resp.: maximal response for β-arrestin recruitment; for pEC50: β-arrestin recruitment, read-out: β-arr. EC50; for inhibition of β-arrestin recruitment at a static concentration of 5 μM: printed in β-arr. EC50 column
Procedure: The effects of MOR PAMs and MOR SAMs on receptor activity were assayed using the PathHunter enzyme complementation assay technology (DiscoveRx, CA). A description of the technology employed is as follows.
Beta-Arrestin Pathway: The PathHunter β-arrestin assay monitors the activation of a GPCR in a homogenous, non-imaging assay format using a technology developed by DiscoveRx called Enzyme Fragment Complementation (EFC) with beta-galactosidase (β-Gal) as the functional reporter. […] EA is fused to β-Arrestin and ED is fused to the GPCR of interest. When the GPCR is activated and β-arrestin is recruited to the receptor, ED and EA complementation occurs, restoring β-gal activity, which is measured using chemiluminescent PathHunter Detection Reagents.
In this manner an EC50 for each test compound, and percent maximal response for each test compound, were determined for both the β-arrestin and cAMP pathways. Though the pharmacological effects of a given signal bias can be hypothesized (Raehal et al. (2011) Pharmacol. Rev. 63:1001-1019), it is not possible to know with certainty which bias ratio will be most advantageous in a clinical setting. […] Kenakin 2015a, supra. The information associated with the compounds detailed herein is the first large data set available for the prediction of ligand bias for an MOR PAM.

[3] = adenylyl cyclase inhibition; read-out: cAMP EC50
[4] = maximal response for adenylyl cyclase inhibition
[5] = read-out: cAMP EC50; adenylyl cyclase inhibition

T1 sequence (P35372 whole entry): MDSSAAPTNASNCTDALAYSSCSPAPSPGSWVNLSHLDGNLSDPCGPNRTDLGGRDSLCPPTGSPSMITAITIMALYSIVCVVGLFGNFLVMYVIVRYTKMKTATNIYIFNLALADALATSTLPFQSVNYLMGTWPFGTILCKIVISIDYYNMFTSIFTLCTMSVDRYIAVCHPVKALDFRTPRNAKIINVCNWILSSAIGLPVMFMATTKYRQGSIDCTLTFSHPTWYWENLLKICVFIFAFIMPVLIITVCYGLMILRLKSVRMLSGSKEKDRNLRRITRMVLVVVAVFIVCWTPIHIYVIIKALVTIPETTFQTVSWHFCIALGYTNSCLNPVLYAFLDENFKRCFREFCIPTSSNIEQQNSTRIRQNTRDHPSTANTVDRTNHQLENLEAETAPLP

SMILES	pEC50 (mu opioid receptor (MOR) [1]; [3])	cAMP Max. Resp. (mu opioid receptor (MOR) [1]; [4])	β-arr Max. Resp. (mu opioid receptor (MOR) [2])	pEC50 (mu opioid receptor (MOR) [2])	inhibition of β-arrestin recruitment at a static concentration of 5 μM (mu opioid receptor (MOR) [2])	pEC50 (mu opioid receptor (MOR) [1]; [5])
COc1ccc(C2CC(C(F)(F)F)CN2S(=O)(=O)c2ccc(Cl)cc2)cc1Br (mixture of isomers) [Compound 86]	< 5.68	D (D represents a maximal response of < 40%)	D (D represents a maximal response of < 40%)	< 5.68		
CC1CCN(S(=O)(=O)c2ccc(Cl)cc2)C1c1ccc(Cl)c(C(F)(F)F)c1 (mixture of isomers) [Compound 87]	< 5.68	D (D represents a maximal response of < 40%)	F (F represents a maximal response of > 60%)	< 5.68		
CC1CCN(S(=O)(=O)c2ccc(Cl)cc2)C1c1ccc(Cl)cc1 (mixture of isomers) [Compound 88]	< 5.68	D (D represents a maximal response of < 40%)	E (E represents a maximal response of 40-60%)	< 5.68		
CC1CCN(S(=O)(=O)c2ccc(Cl)cc2)C1c1cccc(C(F)(F)F)c1 (mixture of isomers) [Compound 89]	< 5.68	D (D represents a maximal response of < 40%)	F (F represents a maximal response of > 60%)	5.68 to 6.15		
COc1ccc(C2C(C(F)(F)F)CCN2S(=O)(=O)c2ccc(Cl)cc2)cc1Br (mixture of isomers) [Compound 90]	< 5.68	D (D represents a maximal response of < 40%)	D (D represents a maximal response of < 40%)	< 5.68		
CC1CCN(S(=O)(=O)c2ccc(Cl)cc2)C1c1ccc2c(c1)CCO2 (mixture of isomers) [Compound 91]	< 5.68	D (D represents a maximal response of < 40%)	F (F represents a maximal response of > 60%)	< 5.68		
CC1CCN(S(=O)(=O)c2ccc(Cl)cc2)C1c1ccc(Br)c(F)c1 (mixture of isomers) [Compound 92]	< 5.68	D (D represents a maximal response of < 40%)	F (F represents a maximal response of > 60%)	5.68 to 6.15		
CC1CCN(S(=O)(=O)c2ccc(Cl)cc2)C1c1ccc(F)c(C#N)c1 (mixture of isomers) [Compound 93]	< 5.68	D (D represents a maximal response of < 40%)	E (E represents a maximal response of 40-60%)	5.68 to 6.15		
CC1CCN(S(=O)(=O)c2ccc(Cl)cc2)C1c1ccc(OC(F)(F)F)c(Br)c1 (mixture of isomers) [Compound 94]	> 6.15	D (D represents a maximal response of < 40%)	F (F represents a maximal response of > 60%)	> 6.15		
CC1CCN(S(=O)(=O)c2ccc(Cl)cc2)C1c1ccc(F)cc1 (mixture of isomers) [Compound 95]	< 5.68	D (D represents a maximal response of < 40%)	F (F represents a maximal response of > 60%)	< 5.68		
CC1CCN(S(=O)(=O)c2ccc(Cl)cc2)C1c1ccc2c(c1)OCO2 (mixture of isomers) [Compound 96]	< 5.68	D (D represents a maximal response of < 40%)	F (F represents a maximal response of > 60%)	< 5.68		
COc1ccc(C2CCCCN2S(=O)(=O)c2ccc(Cl)cc2)cc1Br (racemic) [compound 4]			F (F represents a maximal response of > 60%)	< 5.68		
COc1ccc(C2CC(C(F)(F)F)CN2S(=O)(=O)c2ccc(Cl)cc2)cc1Br (single isomer, unassigned) [Compound 111]			F (F represents a maximal response of > 60%)	< 5.68		
COc1ccc(C2CC(F)CN2S(=O)(=O)c2ccc(Cl)cc2)cc1Br (single isomer, unassigned) [Compound 112]					G (G represents < 50% inhibition of β-arrestin recruitment at a static concentration of 5 μM, for compounds that were not tested for adenylyl cyclase inhibition)	
COc1ccc(C2CC(F)CN2S(=O)(=O)c2ccc(Cl)cc2)cc1Br (single isomer, unassigned) [Compound 114]			D (D represents a maximal response of < 40%)	< 5.68		
COc1ccc(C2N(S(=O)(=O)c3ccc(Cl)cc3)CCC2(F)F)cc1Br (single isomer, unassigned) [Compound 116]			F (F represents a maximal response of > 60%)	< 5.68		
COc1ccc(C2C(C(F)(F)F)CCN2S(=O)(=O)c2ccc(Cl)cc2)cc1Br (single isomer, unassigned) [Compound 117]			F (F represents a maximal response of > 60%)	< 5.68		
Fc1cnc(Cl)nc1N1CCCC(F)C1c1cccc(C(F)(F)F)c1 (single isomer, unassigned) [compound 208]						5.68 to 6.15

SMILES	pEC50 (mu opioid receptor (MOR) [1]; [3])	cAMP Max. Resp. (mu opioid receptor (MOR) [1]; [4])	β-arr Max. Resp. (mu opioid receptor (MOR) [2])	pEC50 (mu opioid receptor (MOR) [2])	inhibition of β-arrestin recruitment at a static concentration of 5 μM (mu opioid receptor (MOR) [2])	pEC50 (mu opioid receptor (MOR) [1]; [5])
Fc1cnc(Cl)nc1N1CCCC(F)C1c1cccc(C(F)(F)F)c1 (single isomer, unassigned) [compound 209]						5.68 to 6.15
O=S(=O)(c1ccccc1)N1CCCCC1c1cccc(C(F)(F)F)c1 (centres unmarked) [Compound 19]					G (G represents < 50% inhibition of β-arrestin recruitment at a static concentration of 5 μM, for compounds that were not tested for adenylyl cyclase inhibition)	
O=S(=O)(c1ccc2ccccc2c1)N1CCCCC1c1cccc(C(F)(F)F)c1 (centres unmarked) [Compound 20]					G (G represents < 50% inhibition of β-arrestin recruitment at a static concentration of 5 μM, for compounds that were not tested for adenylyl cyclase inhibition)	
[2H]C1(c2ccc(F)c(Br)c2)C(F)CCCN1S(=O)(=O)c1ccccc1 (centres unmarked) [Compound 30]					G (G represents < 50% inhibition of β-arrestin recruitment at a static concentration of 5 μM, for compounds that were not tested for adenylyl cyclase inhibition)	
[2H]C1(c2ccc(F)c(Br)c2)C(F)CCCN1S(=O)(=O)c1ccc2ccccc2c1 (centres unmarked) [Compound 31]					G (G represents < 50% inhibition of β-arrestin recruitment at a static concentration of 5 μM, for compounds that were not tested for adenylyl cyclase inhibition)	
[2H]C1(c2ccc(F)c(Br)c2)C(F)CCCN1S(=O)(=O)Cc1ccc(Cl)c(Cl)c1 (centres unmarked) [Compound 34]					G (G represents < 50% inhibition of β-arrestin recruitment at a static concentration of 5 μM, for compounds that were not tested for adenylyl cyclase inhibition)	
[2H]C1(c2ccc(F)c(Br)c2)C(F)CCCN1S(=O)(=O)Cc1ccccc1 (centres unmarked) [Compound 35]					G (G represents < 50% inhibition of β-arrestin recruitment at a static concentration of 5 μM, for compounds that were not tested for adenylyl cyclase inhibition)	
[2H]C1(c2ccc(F)c(Br)c2)C(F)CCCN1S(=O)(=O)Cc1ccccc1Cl (centres unmarked) [Compound 36]					G (G represents < 50% inhibition of β-arrestin recruitment at a static concentration of 5 μM, for compounds that were not tested for adenylyl cyclase inhibition)	
[2H]C1(c2ccc(F)c(Br)c2)C(F)CCCN1S(=O)(=O)c1ccc(OC)cc1 (centres unmarked) [Compound 39]					G (G represents < 50% inhibition of β-arrestin recruitment at a static concentration of 5 μM, for compounds that were not tested for adenylyl cyclase inhibition)	
COc1ccc(C2N(S(=O)(=O)c3ccc(Cl)cc3)CCC2(F)F)cc1Br (centres unmarked) [Compound 113]			F (F represents a maximal response of > 60%)	< 5.68		
COc1ccc(C2C(F)CCN2S(=O)(=O)c2ccc(Cl)cc2)cc1Br (centres unmarked) [Compound 115]			E (E represents a maximal response of 40-60%)	< 5.68		
COc1ccc(C2CCN2S(=O)(=O)c2ccc(Cl)cc2)cc1Br (centres unmarked) [compound 40]			D (D represents a maximal response of < 40%)	< 5.68		
COc1ccc(C2CCCN2S(=O)(=O)c2ccc(Cl)cc2)cc1Br (centres unmarked) [compound 41]			F (F represents a maximal response of > 60%)	< 5.68		
O=S(=O)(c1ccc(Cl)cc1)N1CCCCC1c1ccccn1 (centres unmarked) [compound 45]					G (G represents < 50% inhibition of β-arrestin recruitment at a static concentration of 5 μM, for compounds that were not tested for adenylyl cyclase inhibition)	
Cc1cccc(C2CCCCN2S(=O)(=O)c2ccc(Cl)cc2)n1 (centres unmarked) [compound 46]					G (G represents < 50% inhibition of β-arrestin recruitment at a static concentration of 5 μM, for compounds that were not tested for adenylyl cyclase inhibition)	
N#Cc1cccc(C2CCCCN2S(=O)(=O)c2ccc(Cl)cc2)n1 (centres unmarked) [compound 47]					G (G represents < 50% inhibition of β-arrestin recruitment at a static concentration of 5 μM, for compounds that were not tested for adenylyl cyclase inhibition)	
FC(F)(F)c1cccc(C2CCCCN2Cc2ccc(Cl)cc2)c1 (centres unmarked) [compound 140]					G (G represents < 50% inhibition of β-arrestin recruitment at a static concentration of 5 μM, for compounds that were not tested for adenylyl cyclase inhibition)	
